The target in data set [1] is T1, Sigma-2/PGRMC1 receptor complex (Homo sapiens, UniProt Q5BJF2).
T1 construct: from tissue; host or cells: brain of trial patients, in vivo (occupancy estimated from CSF drug concentration, not measured)
The data set can be described thus: Phase 1b/2a trial: pharmacokinetics and estimated brain receptor occupancy. The settings on record: AD patients, 90-560 mg, day 28. In kind it is in vivo. The procedure: COG0102 clinical trial: This trial (ClinicalTrials.gov NCT02907567) was a randomized, double-blind, placebo-controlled clinical trial in mild to moderate Alzheimer's patients (MMSE 18-26) (See FIG. 1 for clinical trial design). The trial was conducted at six sites in Australia. Patients were randomized into placebo (n=5) or CT1812-treated groups: 90 mg (n=4), 280 mg (n=5) or 560 mg (n=5) and treated once daily for 28 days. Clinical chemistry was done at Sydpath (Sydney, AU). Pharmacokinetics were done at CPR Pharma Services (Adelaide, AU). Cerebrospinal fluid samples were taken at screening and day 21-28 of treatment and aliquoted. […] One set of CSF samples was analyzed for Alzheimer's disease biomarkers; protein measurements (Aβ42, Aβ40, total tau, tau phosphorylated at threonine 181 (phosphorylated tau), NFL and neurogranin) were performed using commercially available ELISA assays from Fujirebio according to the manufacturer's instructions (INNOTEST β-AMYLOID(1-42), INNOTEST β-AMYLOID(1-40), INNOTEST hTau Ag, INNOTEST PHOSPHO-TAU(181P), Uman Diagnostics NFL assay). Neurogranin was measured with a sandwich ELISA method using antibodies Ng2 and Ng22 developed at the University of Gotteborg (Kvartsberg et al. 2015). Identical aliquots of CSF, and plasma were analyzed for protein expression changes via LC/MSMS at Caprion (see below).

A short description of data set [2]: Phase 1 multiple ascending dose (MAD) study: plasma pharmacokinetics. Details: CLss/F: unit not given here. The settings on record: for CLss/F / t1/2: MAD. The data set is classed as in vivo, human. The procedure:
A Phase 1, two-part single and multiple ascending dose study was conducted in 7 and 4 cohorts of healthy human subjects respectively. […] In Part B, subjects were administered 280, 560, and 840 mg once daily for 14 days (8:2 A:P per cohort). An elderly cohort, age 65-75, was dosed at 560 mg once daily for 14 days (7:2 A:P). […] Cognitive testing was performed in the healthy elderly cohort at baseline and at Day 14 of treatment.
In Part B, healthy young subjects in each cohort received the same dose once daily for 14 days after overnight fasting. Cohort dosing started at 280 mg, followed by 560 mg and 840 mg in subsequent cohorts. In each cohort, eight subjects received drug and two received placebo. A fourth cohort of healthy elderly subjects (≥65 years old) received a 560 mg dose vs. placebo daily for 14 days (seven active, two placebo).
Subjects were dosed in the morning with 240 mL of water after an 8-hour fast, and remained in a semi-reclined position for 1 hour and fasting for 2 hours post-administration, except for the fed cohort in Part A. Subjects in each MAD cohort were confined to the clinical facility from check-in on Day 0 until the pharmacokinetic sample was collected on Day 16, 48 hours after administration of the last dose on Day 14. Subjects returned to the clinical facility for follow-up visits on Days 24 and 35.
In Part A, blood draws for assessment of PK parameters occurred pre-dose and at 15, 30, 45, 60, and 90 minutes post dose as well as at 2, 3, 4, 8, 12, 24, 36, and 48 hours post dose. […] In Part B, blood samples for plasma PK analysis were taken on Day 1 at pre-dose and at 2 hours post-dose, on Day 3 at pre-dose and at 15, 30 and 45 minutes and 1, 2, 3, 4, 8, 12 and 24 hours post-dose, on Days 4, 6, 8 and 10 at pre-dose and at 1.5 hours post-dose and following the final dose on Day 14 at pre-dose and 15, 30 and 45 minutes and 1, 2, 4, 8, 12, 24, 36 and 48 hours post-dose.
This was assessed by analysis of variance (ANOVA) of log-transformed Cmax, AUC0-24, AUC0-48, and/or AUC0-inf, using a model with factors for treatment (fed status or age [young vs. elderly] status) and subject within sequence. Treatment mean differences and 90% confidence intervals of the log transformed PK parameters were back-transformed, to present the geometric least squares means ratios and 90% confidence limits.

Setting [3] is: MAD 560 mg, Day 14 (steady state).
Where [4] appears, read: age up to 64 years, 280 mg (n = 8), Day 14, mean.
Where [5] appears, read: age up to 64 years, 560 mg (n = 8), Day 14, mean.

Results on one compound are retold here after patent US20250177351A1, “ISOINDOLINE COMPOSITIONS AND METHODS FOR TREATING NEURODEGENERATIVE DISEASE” (Cognition Therapeutics, Inc., priority 2022, published 2025).

Marks after values point to notes of the source that are not given here.

T1 sequence (Q5BJF2 whole entry, one chain of several): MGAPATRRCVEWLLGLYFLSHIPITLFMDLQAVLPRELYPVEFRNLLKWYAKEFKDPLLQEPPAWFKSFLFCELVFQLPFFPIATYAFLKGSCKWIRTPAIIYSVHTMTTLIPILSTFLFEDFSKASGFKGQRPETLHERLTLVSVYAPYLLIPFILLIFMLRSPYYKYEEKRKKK

For `CC(C)(C)Oc1cc(CCC(C)(C)N2Cc3ccc(S(C)(=O)=O)cc3C2)ccc1O` [CT1812], the “increase of plasma concentration with dose” value in data set [1] was “approximately dose proportionally”. Further, in data set [2] (MAD 560 mg, Day 3), the “AUC0-24h, aged cohort vs subjects under 64 years (geometric least-squares mean)” value is listed as about 1.34 times. Moreover, the “Cmax, aged cohort vs subjects under 64 years (geometric least-squares mean)” value in data set [2] (MAD 560 mg, Day 3) was “approximately 1.7 times”. Besides, in data set [2] (setting [3]), the “AUC0-24h, aged cohort vs younger subjects” value was 1.5 times. For the same compound, the “Cmax, aged cohort vs younger subjects” value in data set [2] (setting [3]) is on record as 1.6 times. In addition, in data set [2] (MAD 280 to 840 mg), the “increase of Cmax and AUC with dose” value was “slightly greater than dose proportionally”. The CLss/F in data set [2] (age at least 65 years, 560 mg (n = 7), Day 14, mean) is 169^‡‡; in data set [2] (setting [4]), 387; in data set [2] (setting [5]), 296; in data set [2] (age up to 64 years, dose cell prints 560 mg (n = 7), Day 14, follows 840 mg Day 3) it was 212^‡‡. Besides, the t1/2 in data set [2] (age at least 65 years, 560 mg, Day 3 (n = 4), over max. 24 hours post dose) is 8.83^†† hr; in data set [2] (setting [4]), 12.0 h; in data set [2] (setting [5]), 12.3 h; in data set [2] (age up to 64 years, dose cell prints 560 mg (n = 7), Day 14, follows 840 mg Day 3 (n = 6)) it was 8.93^§ hr. The accumulation in plasma result in data set [2] (over 14 days) is “minimal accumulation”.
